Publication PMC12169679 (Journal of Medicinal Chemistry, 2025)

Tests used:
in vitro [1] = conditions: PAMPA, pH 7.4
[2] = PAMPA
VeroE6 cells = conditions: cited from earlier work
[3] = test system: wild-type EBOV (Orthoebolavirus zairense, Mayinga variant); conditions: for EC50: read-out: EC50 (EBOV)
[4] = test system: EBOV-GP-pseudotype virus (pEBOV); conditions: cited from earlier work
[5] = test system: EBOV-GP-pseudotype virus (pEBOV)
A549 cells = conditions: cited from earlier work
[6] = test system: EBOV-GP-pseudotype virus (pEBOV); assay: microbe, parasite or virus in culture; conditions: Zaire ebolavirus; for inhibition at 10 µM: Vero C1008, read-out: %inh@10 μM (pEBOV)
in vitro [7] = conditions: African green monkey

Row | SMILES | Papp (in vitro [1]) [×10⁻⁶ cm/s] | prediction of CNS penetration [2] | CC50 (VeroE6 cells) [µM] | CC50 (in vitro [7]) [µM] | other results
1 | Cn1c(=O)c2c(ncn2C)n(C)c1=O [Caffeine, reference compound] | 1.5 ± 0.3 | CNS− | – | – | –
2 | CCn1cc(C(=O)O)c(=O)c2cc(F)c(N3CCNCC3)nc21 [Enoxacin, reference compound] | 1.2 ± 0.2 | CNS− | – | – | –
3 | NC(=O)c1nc(F)c[nH]c1=O [Favipiravir, reference compound] | – | – | > 1000 | – | –
4 | CN1C(C(=O)Nc2ccccn2)=C(O)c2ccccc2S1(=O)=O [Piroxicam, reference compound] | – | CNS− | – | – | Pe ([2]; pH 7.4): 1.6 ± 0.7
5 | CN(C)CCCN1c2ccccc2Sc2ccccc21 [Promazine, reference compound] | 9.1 ± 1.3 | CNS+ | – | – | –
6 | O=C(CN1CCCC1)NNc1ccccc1Sc1cc(Cl)ccc1[N+](=O)[O-] [SC073] | – | SNC + | 80 | – | SI (CC50/EC50), replicative EBOV [3]: 18.6; EC50 [3]: 4.3 µM; SI (CC50/EC50) of the hits, pEBOV [4]: 27.5
7 | CCN(CC)CC(=O)NNc1ccccc1Sc1cc(Cl)ccc1[N+](=O)[O-] [SC198] | – | SNC + | 50 | – | SI (CC50/EC50), replicative EBOV [3]: 8.3; EC50 [3]: 6 µM; SI (CC50/EC50) of the hits, pEBOV [4]: 12.4
8 | CN(C)CCOc1ccc(/C(=C(/CCCl)c2ccccc2)c2ccccc2)cc1 [Toremifene, reference compound] | – | – | – | 10 | SI (pEBOV) (CC50/EC50) [5]: d Toremifene was used as the reference of the assay EC50 = 0.17 μM (95% CI = 0.15–0.54 μM), CC50 (VeroE6 cells) = 10 μM, SI = 58.8 (lit^25: EC50 = 0.07 ± 0.05 μM, CC50 (A549 cells) = 16 μM, SI = 229).; CC50 (A549 cells): 16 µM; EC50 ([6]; Vero C1008, read-out: EC50 (pEBOV)): 0.17 µM
9 | O=C(CN1CCCC1)Nc1ccccc1Sc1cc(Cl)ccc1[N+](=O)[O-] [compound 7, N-(2-((5-Chloro-2-nitrophenyl)thio)phenyl)-2-(pyrrolidin-1-yl)acetamide] | – | – | – | > 200 | EC50 (EBOV) [3]: inactive; antiviral activity against pEBOV, in words [5]: inactive; inhibition at 10 µM [6]: -2%
10 | CCN(CC)CC(=O)Nc1ccccc1Sc1cc(Cl)ccc1[N+](=O)[O-] [compound 8, N-(2-((5-Chloro-2-nitrophenyl)thio)phenyl)-2-(diethylamino)acetamide] | – | – | – | > 200 | antiviral activity against pEBOV, in words [5]: inactive; inhibition at 10 µM [6]: -5%
